The test system of data set [1] is Plasma. Kind of data set: Anticoagulant potency in human plasma assessed as concentration for doubling of prothrombin time. The class given is functional.
The nature of data set [2]: Half life in Beagle dog at 1 mg/kg, iv. The format is ADME, organism-based, Canis lupus familiaris. The arrangement: dose 1 mg/kg, route intravenous. The note with it: in vivo.
The nature of data set [3]: Bioavailability in Beagle dog at 10 mg/kg, po normalized to 1 mg/kg, iv. The class given is ADME, organism-based, Canis lupus familiaris. To be noted: in vivo.
Data set [4] is described as follows: Clearance in Beagle dog at 1 mg/kg, iv. The class given is ADME, organism-based, Canis lupus familiaris. The arrangement: dose 1 mg/kg, route intravenous. The note with it: in vivo.
Data set [5] can be described thus: Cmax in Beagle dog at 10 mg/kg, po. The class given is ADME, organism-based, Canis lupus familiaris. On the set-up: dose 10 mg/kg, route oral. The note with it: in vivo.
For data set [6], the target named is Coagulation factor X (Homo sapiens, UniProt P00742). Kind of data set: Inhibition of human F10a. The note with it: read-out: Ki app.
Sequence of Coagulation factor X (Homo sapiens, UniProt P00742) (P00742 41-179 limits assumed): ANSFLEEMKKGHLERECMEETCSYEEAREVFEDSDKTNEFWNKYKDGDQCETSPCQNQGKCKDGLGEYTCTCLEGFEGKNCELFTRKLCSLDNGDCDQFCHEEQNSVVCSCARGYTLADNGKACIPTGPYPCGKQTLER
Sequence of Coagulation factor X (Homo sapiens, UniProt P00742) (P00742 235-488 limits assumed): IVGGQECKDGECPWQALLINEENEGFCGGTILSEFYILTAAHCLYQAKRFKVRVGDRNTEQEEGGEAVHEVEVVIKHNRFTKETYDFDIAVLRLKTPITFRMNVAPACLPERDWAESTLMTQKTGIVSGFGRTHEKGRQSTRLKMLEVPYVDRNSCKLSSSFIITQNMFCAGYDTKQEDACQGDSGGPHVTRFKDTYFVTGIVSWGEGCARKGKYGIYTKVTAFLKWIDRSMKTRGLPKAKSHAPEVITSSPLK
A short description of data set [7]: Volume of distribution at steady state in Beagle dog at 1 mg/kg, iv. The format is ADME, organism-based, Canis lupus familiaris. The arrangement: dose 1 mg/kg, route intravenous. To be noted: in vivo, read-out: Vss.
Another data set has as its target Prothrombin (Homo sapiens, UniProt P00734). In words: Inhibition of human F2a. To be noted: read-out: Ki app.
The target in another data set is Coagulation factor XI (Homo sapiens, UniProt P03951). In words: Inhibition of human F11a.
Sequence of Coagulation factor XI (P03951 19-387 limits assumed): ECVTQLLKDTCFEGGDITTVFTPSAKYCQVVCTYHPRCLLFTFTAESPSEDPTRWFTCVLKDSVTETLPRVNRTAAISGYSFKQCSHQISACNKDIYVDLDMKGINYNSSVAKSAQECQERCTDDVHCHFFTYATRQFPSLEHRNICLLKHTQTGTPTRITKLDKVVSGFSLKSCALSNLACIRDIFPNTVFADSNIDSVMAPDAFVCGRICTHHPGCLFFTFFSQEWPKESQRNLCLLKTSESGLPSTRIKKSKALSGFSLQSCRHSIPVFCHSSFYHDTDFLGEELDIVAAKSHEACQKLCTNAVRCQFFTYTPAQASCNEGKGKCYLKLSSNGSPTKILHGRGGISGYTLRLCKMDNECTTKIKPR
Sequence of Coagulation factor XI (P03951 388-625 limits assumed): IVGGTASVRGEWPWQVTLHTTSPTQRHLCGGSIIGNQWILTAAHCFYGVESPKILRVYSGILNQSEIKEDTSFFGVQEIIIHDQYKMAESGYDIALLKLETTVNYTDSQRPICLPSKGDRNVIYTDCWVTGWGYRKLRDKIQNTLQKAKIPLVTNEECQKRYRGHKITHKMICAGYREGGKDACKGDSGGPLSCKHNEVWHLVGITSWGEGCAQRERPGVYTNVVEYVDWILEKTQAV
Data set [8] can be described thus: Inhibition of dog F10a. On the set-up: species or system Canis lupus familiaris.
Data set [9] concerns the target Coagulation factor X (Rattus norvegicus, UniProt Q63207). Kind of data set: Inhibition of rat F10a.
Data set [10] can be described thus: Inhibition of human chymotrypsin.
Another data set concerns the target T1, Cathepsin G (Homo sapiens, UniProt P08311).
T1 sequence (P08311 whole entry): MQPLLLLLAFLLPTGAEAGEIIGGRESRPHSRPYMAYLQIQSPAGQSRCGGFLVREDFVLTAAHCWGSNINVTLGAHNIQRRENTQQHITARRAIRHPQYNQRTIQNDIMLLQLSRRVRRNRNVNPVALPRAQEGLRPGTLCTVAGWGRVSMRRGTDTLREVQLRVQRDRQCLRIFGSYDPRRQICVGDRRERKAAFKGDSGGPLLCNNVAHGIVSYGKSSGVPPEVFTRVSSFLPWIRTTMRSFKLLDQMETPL
Kind of data set: Inhibition of human cathepsin G.

Data set [11] relates to Plasma. Kind of data set: Anticoagulant potency in dog plasma assessed as concentration for doubling of prothrombin time. The format is functional, Canis lupus familiaris.
The target in data set [12] is Urokinase-type plasminogen activator (Homo sapiens, UniProt P00749). Kind of data set: Inhibition of human urokinase.
Data set [13] has as its system Plasma. Kind of data set: Anticoagulant potency in rat plasma assessed as concentration for doubling of prothrombin time. The format is functional.
The next data set has as its system Rattus norvegicus. In words: Inhibition of thrombosis in iv dosed Wistar rat vena cava stasis model. The format is functional, organism-based.
The target of a further data set is Plasma kallikrein (Homo sapiens, UniProt P03952). In words: Inhibition of human kallikrein.
Sequence of Plasma kallikrein (P03952 20-390 limits assumed): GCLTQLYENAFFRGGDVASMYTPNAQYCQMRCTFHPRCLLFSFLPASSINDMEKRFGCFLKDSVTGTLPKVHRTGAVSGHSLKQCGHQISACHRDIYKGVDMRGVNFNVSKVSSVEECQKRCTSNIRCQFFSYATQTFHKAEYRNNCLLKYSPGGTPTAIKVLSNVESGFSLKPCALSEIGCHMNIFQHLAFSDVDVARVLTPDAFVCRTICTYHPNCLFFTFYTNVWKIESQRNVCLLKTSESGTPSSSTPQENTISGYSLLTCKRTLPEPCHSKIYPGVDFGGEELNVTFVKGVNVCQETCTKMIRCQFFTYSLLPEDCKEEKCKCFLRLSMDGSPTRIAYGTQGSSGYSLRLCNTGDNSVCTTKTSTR
Sequence of Plasma kallikrein (P03952 391-638 limits assumed): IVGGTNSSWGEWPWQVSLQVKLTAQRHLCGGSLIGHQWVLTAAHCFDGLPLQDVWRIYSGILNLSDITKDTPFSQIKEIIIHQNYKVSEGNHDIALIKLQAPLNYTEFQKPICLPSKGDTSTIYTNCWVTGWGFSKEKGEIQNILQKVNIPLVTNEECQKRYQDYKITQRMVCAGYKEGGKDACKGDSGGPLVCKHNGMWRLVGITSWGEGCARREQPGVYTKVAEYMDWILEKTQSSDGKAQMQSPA
In another data set the target is Plasminogen (Homo sapiens, UniProt P00747). In words: Inhibition of human plasmin.
Sequence of Plasminogen (P00747 97-580 limits assumed): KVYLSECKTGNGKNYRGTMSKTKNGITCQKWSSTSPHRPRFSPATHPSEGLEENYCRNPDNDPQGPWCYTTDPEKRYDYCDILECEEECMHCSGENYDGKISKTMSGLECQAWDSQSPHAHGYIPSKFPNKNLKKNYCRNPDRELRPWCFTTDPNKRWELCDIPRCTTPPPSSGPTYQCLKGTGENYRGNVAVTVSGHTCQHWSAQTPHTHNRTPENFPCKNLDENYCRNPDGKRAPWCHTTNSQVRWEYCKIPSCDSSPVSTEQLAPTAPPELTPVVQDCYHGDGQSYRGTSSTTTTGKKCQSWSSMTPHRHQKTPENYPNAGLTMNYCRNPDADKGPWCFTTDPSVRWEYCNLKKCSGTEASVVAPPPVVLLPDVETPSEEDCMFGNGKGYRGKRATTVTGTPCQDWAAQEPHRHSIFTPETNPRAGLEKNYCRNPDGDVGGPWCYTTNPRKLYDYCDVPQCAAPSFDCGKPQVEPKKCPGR
Sequence of Plasminogen (P00747 581-810 limits assumed): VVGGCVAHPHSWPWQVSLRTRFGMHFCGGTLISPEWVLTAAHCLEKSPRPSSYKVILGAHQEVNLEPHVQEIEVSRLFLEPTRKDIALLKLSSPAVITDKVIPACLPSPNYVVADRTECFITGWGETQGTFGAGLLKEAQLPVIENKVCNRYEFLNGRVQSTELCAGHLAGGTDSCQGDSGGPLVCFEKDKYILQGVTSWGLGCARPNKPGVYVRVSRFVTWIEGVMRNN
In data set [14] the target is Tissue-type plasminogen activator (Homo sapiens, UniProt P00750). Kind of data set: Inhibition of human tPA.
Sequence of Tissue-type plasminogen activator (P00750 whole entry): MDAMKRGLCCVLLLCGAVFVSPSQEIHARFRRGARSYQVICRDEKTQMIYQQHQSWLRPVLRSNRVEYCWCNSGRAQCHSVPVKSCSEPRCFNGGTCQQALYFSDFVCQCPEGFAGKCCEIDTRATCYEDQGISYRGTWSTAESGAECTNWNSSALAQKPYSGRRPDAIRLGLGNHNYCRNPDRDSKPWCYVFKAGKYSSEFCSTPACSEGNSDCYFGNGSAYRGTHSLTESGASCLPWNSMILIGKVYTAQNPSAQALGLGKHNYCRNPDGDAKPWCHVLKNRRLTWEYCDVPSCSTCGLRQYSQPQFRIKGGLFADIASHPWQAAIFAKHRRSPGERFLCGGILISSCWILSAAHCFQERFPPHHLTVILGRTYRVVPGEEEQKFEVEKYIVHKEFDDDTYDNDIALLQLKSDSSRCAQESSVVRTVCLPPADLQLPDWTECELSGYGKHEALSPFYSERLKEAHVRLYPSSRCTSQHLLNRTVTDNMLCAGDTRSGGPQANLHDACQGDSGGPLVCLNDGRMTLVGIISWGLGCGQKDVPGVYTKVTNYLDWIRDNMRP
The target in the next data set is T2, Neutrophil elastase (Homo sapiens, UniProt P08246).
T2 sequence (P08246 whole entry): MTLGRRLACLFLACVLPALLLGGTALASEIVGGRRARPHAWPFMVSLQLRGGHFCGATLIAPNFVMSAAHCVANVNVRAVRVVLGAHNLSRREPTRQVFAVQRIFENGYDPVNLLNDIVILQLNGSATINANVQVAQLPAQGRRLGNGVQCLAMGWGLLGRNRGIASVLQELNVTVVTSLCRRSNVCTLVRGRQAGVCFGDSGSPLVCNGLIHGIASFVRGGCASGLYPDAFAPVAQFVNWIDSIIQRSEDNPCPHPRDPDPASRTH
In words: Inhibition of human neutrophil elastase.

The target in a further data set is Trypsin (Homo sapiens, UniProt P07477+P07478+P35030). In words: Inhibition of human trypsin. The format is protein assay.
The subject of data set [15] is Canis familiaris. In words: Ex vivo anticoagulant potency in dog assessed as prolongation of prothrombin time at 10 mg/kg, po after 2 hrs. The format is functional, Canis lupus familiaris.
Data set [16] relates to Canis familiaris. Kind of data set: Ex vivo anticoagulant potency in dog assessed as prolongation of prothrombin time at 10 mg/kg, po after 6 hrs. The format is functional, Canis lupus familiaris.
Data set [17] has as its system Canis familiaris. Kind of data set: Ex vivo anticoagulant potency in dog assessed as prolongation of prothrombin time at 10 mg/kg, po after 1 hr. The class given is functional, Canis lupus familiaris.
Data set [18] in a line: Distribution coefficient, log D at pH 7.4. The class given is physicochemical. The note with it: octanol/water.

pKi: −log10 of the molar value.

The values that follow come from ChEMBL document CHEMBL1145379 (J Med Chem, 2007).

Sequence of Coagulation factor X (Rattus norvegicus, UniProt Q63207) (Q63207 41-180 limits assumed): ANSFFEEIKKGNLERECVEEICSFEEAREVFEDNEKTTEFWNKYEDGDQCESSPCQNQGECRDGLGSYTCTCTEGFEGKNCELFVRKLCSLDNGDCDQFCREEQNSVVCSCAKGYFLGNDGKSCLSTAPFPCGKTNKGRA
Sequence of Coagulation factor X (Rattus norvegicus, UniProt Q63207) (Q63207 232-482 limits assumed): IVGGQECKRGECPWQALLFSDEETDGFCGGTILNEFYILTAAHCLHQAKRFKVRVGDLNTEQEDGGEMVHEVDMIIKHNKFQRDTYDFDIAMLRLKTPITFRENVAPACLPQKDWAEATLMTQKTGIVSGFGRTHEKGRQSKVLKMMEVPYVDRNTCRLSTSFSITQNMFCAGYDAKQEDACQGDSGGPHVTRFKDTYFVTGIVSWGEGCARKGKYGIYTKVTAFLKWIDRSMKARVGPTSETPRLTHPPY

What is called half-life is the time needed for the level to fall by half in the phase considered. By bioavailability is commonly meant the share of a dose that reaches the circulation, judged against a reference dose that is usually intravenous. The term clearance denotes a measure of how efficiently the substance is removed, as volume per time. Lower therefore signals a low capacity for elimination. The term Cmax denotes the peak of the concentration-time curve. The term pKi denotes −log10 of the Ki, conventionally taken in molar units. Consider `COc1cc(Cl)cc(C(=O)Nc2ccc(Cl)cn2)c1NC(=O)c1scc(CN(C)CCO)c1Cl`, for which the Activity in the data set with Plasma [1] stood at 1.6 µM. This compound also had a half-life in data set [2] of 126 min. Besides, in [3], the bioavailability was more than 100%. In data set [4], the clearance is 27 mL/min/kg. The highest level in [5] (Cmax) was 1200 ng/mL. Also, the pKi on Coagulation factor X [6] was 9.62; at Prothrombin, 5.85. Moreover, the Vd in data set [7] worked out at 4.4 L/kg.

Usually Ki stands for a measure of affinity in units of concentration, obtained from inhibition or displacement. As for `CNCc1csc(C(=O)Nc2c(OC)cc(Cl)cc2C(=O)Nc2ccc(Cl)cn2)c1Cl`, the Activity with Plasma [1] was 1.6 µM; in the data set with Plasma [11], 4.35 µM; in the data set on Plasma [13], 7.3 µM; with Rattus norvegicus, “Dose-dependent effect”. In addition, the pKi is less than 5.00 on Coagulation factor XI; 8.77 in data set [8]; 8.60 at Coagulation factor X [9]; less than 5.00 in data set [10]; less than 5.00 at Cathepsin G; less than 5.30 in data set [12]. Moreover, the pKi at Plasma kallikrein is 6.00; on Plasminogen, less than 5.00; on Coagulation factor X [6], 9.68; in data set [14] it was less than 5.30; on Neutrophil elastase it was 5.00; at Prothrombin, 5.43. The half-life in [2] was 630 min. Moreover, the bioavailability in data set [3] amounted to 75%. The same compound came in with a clearance in data set [4] of 1.6 mL/min/kg. The same compound yielded a Cmax in data set [5] of 5100 ng/mL. For the same compound, the Vd in data set [7] worked out at 1.4 L/kg. The same compound gave a Ki on Trypsin of more than 10 µM.

Take `COc1cc(Cl)cc(C(=O)Nc2ccc(Cl)cn2)c1NC(=O)c1scc(CN(C)C2=NCCO2)c1Cl`: the Activity was 0.36 µM with Plasma [1], 0.35 µM in the data set on Plasma [11] and 93 µM with Plasma [13]. Also, the pKi was less than 5.00 at Coagulation factor XI; 9.82 in data set [8]; 9.54 at Coagulation factor X [9]; less than 5.00 in data set [10]; less than 5.00 at Cathepsin G; less than 5.30 in data set [12]. Moreover, the pKi is 7.43 on Plasma kallikrein; less than 5.00 at Plasminogen; 11.15 on Coagulation factor X [6]; less than 5.30 in data set [14]; less than 5.00 at Neutrophil elastase; 7.05 on Prothrombin. The half-life in data set [2] was 192 min. Also, the Fold change is listed as 5 with Canis familiaris [15], 4 in the data set with Canis familiaris [16] and 3.2 with Canis familiaris [17]. For the same compound, the bioavailability in data set [3] came to 56%. The clearance in data set [4] was 5.8 mL/min/kg. The Cmax in data set [5] came out at 1900 ng/mL. For the same compound, the Vd in data set [7] turned out to be 1.6 L/kg. Besides, at Trypsin, the inhibition constant (Ki) was more than 10 µM.

Regarding `CNc1nccn1Cc1csc(C(=O)Nc2c(OC)cc(Cl)cc2C(=O)Nc2ccc(Cl)cn2)c1Cl`, the Activity in the data set with Plasma [1] was 1.2 µM; in the data set on Plasma [11], 4.2 µM; in the data set on Plasma [13], 2.56 µM; in the data set on Rattus norvegicus, “Dose-dependent effect”. For the same compound, the pKi is less than 5.30 at Coagulation factor XI; 9.51 in data set [8]; 10.22 on Coagulation factor X [9]; less than 5.30 in data set [10]; less than 5.30 at Cathepsin G; less than 5.30 in data set [12]. Also, the pKi at Plasma kallikrein is 7.35; at Plasminogen it was less than 5.30; in data set [14], less than 5.30; at Neutrophil elastase, less than 5.30; on Prothrombin, 6.00. The compound also had a half-life in data set [2] of 204 min. This compound also had a bioavailability in data set [3] of 98%. Further, in data set [4], the clearance amounted to 4.4 mL/min/kg. Moreover, the highest level in [5] (Cmax) was 3700 ng/mL. Further, the Vd in data set [7] stood at 1 L/kg. The compound further registered a Ki on Trypsin of more than 5 µM.

As a reminder, the logD is the decadic logarithm of the distribution of all forms, ionised or not, between an organic phase and buffer at a given pH. Low readings indicate a more hydrophilic compound, high ones a more lipophilic compound. Take `CN1CCN(Cc2csc(C(=O)Nc3ccc(Cl)cc3C(=O)Nc3ccc(Cl)cn3)c2Cl)CC1`: in the data set on Plasma [1], the Activity was determined as 6.9 µM. The logD in data set [18] came out at 3.11. For the same compound, the results for the pKi at Coagulation factor X [6] and at Prothrombin were 9.44 and 6.17, respectively.

For the compound `COc1cc(Cl)cc(C(=O)Nc2ccc(Cl)cn2)c1NC(=O)c1scc(CN2CCN(C)CC2)c1Cl`, the Activity in the data set on Plasma [1] is 1.6 µM. This compound gave a logD in data set [18] of 2.75. The values for the pKi at Coagulation factor X [6] and at Prothrombin were 9.80 and 5.82, respectively.

With `CN1CCN(Cc2csc(C(=O)Nc3ccc(Cl)cc3C(=O)Nc3ccc(Cl)cc3)c2Cl)CC1`, the Activity in the data set with Plasma [1] amounted to 12 µM. This compound also returned a logD in [18] of 2.96. Moreover, the values for the pKi at Coagulation factor X [6] and at Prothrombin were 9.12 and 6.08, respectively.
